In paper PMC12527922, “Cocaine chemogenetics blunts drug-seeking by synthetic physiology” (Nature, 2025):
Where “and” joins values, the source holds several entries; their conditions need not be identical. Equal entries are not always repeated. Where two headings read alike, the source gives them in different places.

Tests used:
coca-5HT3 = coca-5HT3 (Homo sapiens, UniProt P36544, G175K/L141G/Y210F/Y217F); assay: [^3H]ASEM displacement, membranes of HEK293 cells expressing coca-5HT3; type: binding, human α7 nAChR LBD, mouse 5HT3 IPD; details: for [3H]ASEM binding, normalised dose-response (DR replicates): HotNM 2.000
Chain of coca-5HT3 (P23979 242-489): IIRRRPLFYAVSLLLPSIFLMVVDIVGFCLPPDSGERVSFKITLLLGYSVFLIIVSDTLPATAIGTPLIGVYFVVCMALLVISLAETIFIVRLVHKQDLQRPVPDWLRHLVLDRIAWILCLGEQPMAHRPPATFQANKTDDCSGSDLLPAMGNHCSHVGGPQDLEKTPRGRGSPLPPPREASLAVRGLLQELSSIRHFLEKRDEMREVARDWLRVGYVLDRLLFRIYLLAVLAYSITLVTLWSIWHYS
Chain of coca-5HT3 (P36544 23-224 L141G/G175K/Y210F/Y217F): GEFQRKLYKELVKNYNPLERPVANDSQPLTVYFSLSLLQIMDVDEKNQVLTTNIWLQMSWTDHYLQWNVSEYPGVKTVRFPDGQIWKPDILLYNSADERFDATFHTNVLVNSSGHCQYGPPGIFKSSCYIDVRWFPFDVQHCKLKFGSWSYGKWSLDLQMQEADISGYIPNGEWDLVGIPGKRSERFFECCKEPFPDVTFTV
Description: Cells were suspended in Tris-HCl 50 mM pH 7.4 supplemented with protease inhibitor cocktail (1:100, Sigma-Aldrich). HEK293 cells were disrupted with a 6 Polytron homogenizer (Kinematica). Homogenates were centrifuged at 48,000g (50 min, 4 °C) and washed twice in the same conditions to isolate the membrane fraction. Protein was quantified using the bicinchoninic acid method (Pierce). […] Free and membrane-bound radioligands were separated by rapid filtration of 500 μl aliquots in a 96-well plate harvester (Brandel) and washed with 2 ml of ice-cold Tris-HCl buffer. Microscint-20 scintillation liquid (65 μl per well, PerkinElmer) was added to the filter plates, plates were incubated overnight at room temperature and radioactivity counts were determined in the MicroBeta2 plate counter (PerkinElmer) with an efficiency of 41%. Two-site competition curves were fitted using Prism 10 (GraphPad). Ki values were calculated using the Cheng–Prusoff equation.

[1] = system: coca-5HT3 in cultured hippocampal neurons; assay: Current-clamp of cultured hippocampal neurons expressing coca-5HT3; type: cell-based, rat; details: for DmV MEAN: coca-5HT3-IRES-EGFP, MEAN of cells
[2] = Two sites - Fit Ki, best-fit value per replicate
[3] = Two sites - Fit Ki, best-fit value, single experiment

Q: For COC(=O)[C@H]1[C@@H](OC(=O)c2ccccc2)C[C@@H]2CC[C@H]1N2C [cocaine], which “binding to coca-5HT3” value (coca-5HT3) is on record?
A: biphasic manner

Q: And the Ki (coca-5HT3; KiHi MEAN, Two sites - Fit Ki, MEAN of replicates, high-affinity site, concentrations in log(M))?
A: 1.43e-11 M

Q: What about the Ki (coca-5HT3; KiHi, Two sites - Fit Ki, best-fit value per replicate, high-affinity site, concentrations in log(M)) of the same compound?
A: 2.45e-11 M and 4.07e-12 M

Q: And the Ki (coca-5HT3; KiHi, Two sites - Fit Ki, best-fit value, single experiment)?
A: 3.36e-09 M and 4.69e-10 M and 1.04e-09 M

Q: And the Ki (coca-5HT3; KiLo MEAN, Two sites - Fit Ki, MEAN of replicates, low-affinity site, concentrations in log(M))?
A: 8.42e-07 M

Q: What about the Ki (coca-5HT3; KiLo, Two sites - Fit Ki, best-fit value per replicate, low-affinity site, concentrations in log(M)) of the same compound?
A: 1.34e-06 M and 3.42e-07 M

Q: And the “FractionHi MEAN” value (coca-5HT3; Two sites - Fit Ki, MEAN of 3 experiments)?
A: 0.4542

Q: What about the Ki (coca-5HT3; Two sites - Fit Ki, MEAN of 3 experiments, read-out: KiHi MEAN) of the same compound?
A: 1.62e-09 M

Q: What about the Ki (coca-5HT3; Two sites - Fit Ki, MEAN of 3 experiments, read-out: KiLo MEAN) of the same compound?
A: 1.05e-05 M

Q: And the Bottom (coca-5HT3; [2])?
A: 2.185 and 3.88

Q: And the Top (coca-5HT3; [2])?
A: 100.5 and 97.8

Q: And the FractionHi (coca-5HT3; Two sites - Fit Ki, best-fit value per replicate, fraction of high-affinity sites)?
A: 0.3742 and 0.3845

Q: What about the logKiHi (coca-5HT3; Two sites - Fit Ki, best-fit value per replicate, high-affinity site, concentrations in log(M), HotNM 2.000, HotKdNM 0.1500) of the same compound?
A: -10.61 and -11.39

Q: What about the logKiLo (coca-5HT3; Two sites - Fit Ki, best-fit value per replicate, low-affinity site, concentrations in log(M), HotNM 2.000, HotKdNM 0.1500) of the same compound?
A: -5.872 and -6.466

Q: What about the FractionHi (coca-5HT3; [3]) of the same compound?
A: 0.6584 and 0.3371 and 0.3672

Q: And the Top (coca-5HT3; [3])?
A: 99.93 and 93.31 and 95.95

Q: What about the “FractionHi MEAN” value (coca-5HT3; Two sites - Fit Ki, MEAN of replicates) of the same compound?
A: 0.3794

Q: And the high-affinity binding sites (coca-5HT3; biphasic curve, displacement of [^3H]ASEM 2 nM)?
A: 45 ± 10%

Q: What about the “[3H]ASEM binding, normalised dose-response (DR replicates)” value (coca-5HT3; competitor log(M) -4) of the same compound?
A: 11.458 and 0

Q: What about the “[3H]ASEM binding remaining, single experiment” value (“[3H]ASEM binding remaining” below) (coca-5HT3; competitor log(M) -5) of the same compound?
A: 23.47 and 26.447 and 37.669

Q: What about the “[3H]ASEM binding, normalised dose-response (DR replicates)” value (coca-5HT3; competitor log(M) -5) of the same compound?
A: 47.775 and 41.228

Q: And the “[3H]ASEM binding remaining” value (coca-5HT3; competitor log(M) -5.5)?
A: 17.557

Q: What about the “[3H]ASEM binding, normalised dose-response (DR replicates)” value (coca-5HT3; competitor log(M) -5.5) of the same compound?
A: 48.554 and 26.456

Q: And the “[3H]ASEM binding remaining” value (coca-5HT3; competitor log(M) -6)?
A: 27.001

Q: And the “[3H]ASEM binding, normalised dose-response (DR replicates)” value (coca-5HT3; competitor log(M) -6)?
A: 57.625 and 37.983

Q: And the “[3H]ASEM binding remaining” value (coca-5HT3; competitor log(M) -6.5)?
A: 30.205 and 53.107

Q: What about the “[3H]ASEM binding, normalised dose-response (DR replicates)” value (coca-5HT3; competitor log(M) -6.5) of the same compound?
A: 51.124 and 74.04

Q: And the “[3H]ASEM binding remaining” value (coca-5HT3; competitor log(M) -7)?
A: 57.024 and 47.634

Q: And the “[3H]ASEM binding, normalised dose-response (DR replicates)” value (coca-5HT3; competitor log(M) -7)?
A: 70.9 and 74.174

Q: What about the “[3H]ASEM binding, normalised dose-response (DR replicates)” value (coca-5HT3; competitor log(M) -7.5) of the same compound?
A: 71.728

Q: What about the “[3H]ASEM binding remaining” value (coca-5HT3; competitor log(M) -8) of the same compound?
A: 65.97 and 67.573 and 58.641

Q: And the “[3H]ASEM binding, normalised dose-response (DR replicates)” value (coca-5HT3; competitor log(M) -8)?
A: 67.385 and 47.743

Q: What about the “[3H]ASEM binding remaining” value (coca-5HT3; competitor log(M) -8.5) of the same compound?
A: 74.698 and 69.889 and 68.057

Q: And the “[3H]ASEM binding remaining” value (coca-5HT3; competitor log(M) -9)?
A: 100.179 and 77.048 and 83.003

Q: And the “[3H]ASEM binding, normalised dose-response (DR replicates)” value (coca-5HT3; competitor log(M) -9)?
A: 72.343 and 49.428

Q: And the “[3H]ASEM binding remaining” value (coca-5HT3; competitor log(M) -9.5)?
A: 97.899 and 80.952 and 89.425

Q: And the “[3H]ASEM binding remaining” value (coca-5HT3; competitor log(M) -10)?
A: 96.081 and 90.356 and 93.104

Q: What about the “[3H]ASEM binding, normalised dose-response (DR replicates)” value (coca-5HT3; competitor log(M) -10) of the same compound?
A: 79.023

Q: And the “[3H]ASEM binding remaining” value (coca-5HT3; competitor log(M) -10.5)?
A: 106.622 and 85.323 and 92.652

Q: And the “[3H]ASEM binding remaining” value (coca-5HT3; competitor log(M) -11)?
A: 94.021 and 93.563 and 93.105

Q: And the “[3H]ASEM binding, normalised dose-response (DR replicates)” value (coca-5HT3; competitor log(M) -11)?
A: 91.338

Q: And the “[3H]ASEM binding remaining” value (coca-5HT3; competitor log(M) -13)?
A: 96.794 and 101.374 and 101.832

Q: And the “[3H]ASEM binding, normalised dose-response (DR replicates)” value (coca-5HT3; competitor log(M) -13)?
A: 100.546 and 98.09

Q: What about the Ki (coca-5HT3; high-affinity inhibition constant (KiH), displacement of [^3H]ASEM 2 nM, two-site fit) of the same compound?
A: 1.6e-09 ± 9e-10 M

Q: And the Ki (coca-5HT3; logKiHi, Two sites - Fit Ki, best-fit value, single experiment)?
A: 3.37e-09 M and 4.69e-10 M and 1.04e-09 M

Q: What about the Ki (coca-5HT3; read-out: low-affinity inhibition constant (KiL), displacement of [^3H]ASEM 2 nM, two-site fit) of the same compound?
A: 1e-05 ± 7e-06 M

Q: What about the “current required to elicit an action potential (rheobase)” value ([1]; 3 µM cocaine) of the same compound?
A: reduced

Q: And the “DmV MEAN” value ([1]; cocaine 0.1 uM)?
A: 0.3818 mV

Q: What about the “DmV MEAN” value ([1]; cocaine 0.3 uM) of the same compound?
A: 1.236 mV

Q: And the “DmV MEAN” value ([1]; cocaine 1 uM)?
A: 4.155 mV

Q: What about the “DmV MEAN” value ([1]; cocaine 3 uM) of the same compound?
A: 11.3545 mV

Q: What about the “DmV MEAN” value ([1]; cocaine 10 uM) of the same compound?
A: 12.55 mV

Q: What about the neuronal firing ([1]; cocaine 1–3 µM) of the same compound?
A: increased

Q: And the “depolarization of neurons expressing coca-5HT3” value ([1]; current-clamp)?
A: depolarized neurons in a dose-dependent manner
